Laboratory results from patent publication US12564638B2 (SHANGHAITECH UNIVERSITY, priority 2019, dated 2026).
Like-named read-outs stand apart in the source and are kept apart here.

Legend:
[1] = tested on: PC9 cells (EGFR Exon 19 del, non-small cell lung cancer cells); experiment: Cell viability assay (WST/CCK8), PC9 cells; type: cell-based; conditions: Homo sapiens, PC-9; PC9 (Exon19 Del), 72 hours, WST (CCK8); read-out: IC50 (half inhibitory concentration)
Source text: The cell lines with abnormal EGFR expression used are as follows: • HCC827 cells (EGFR Exon19 del, non-small cell lung cancer cells); • PC9 cells (EGFR Exon 19 del, non-small cell lung cancer cells); • PC9BracA1 (EGFR Exon 19 del+T790M, non-small cell lung cancer cells) • H1975 (EGFR Exon T790M+L858R mutation, non-small cell lung cancer cell line) • BT474 cells (HER2 positive breast cancer cells)
All of the half inhibitory concentrations (IC50) of these compounds of the present invention were determined with WST reagent from Fuyuan Biotec Company. The specific experiment procedures are as follows: Cancer cells were planted in 96-well-plate at the density of 3 000 cells per well with 100 μL RPMI1640 completed culture medium. In the next day, compounds with indicated concentrations were added to the cells, DMSO was used as the negative control and the EGFR TKIs were used to treat cells as the positive groups. After 72 hours drug treatment, cell viability was measured by using the WST reagent following the instructions.
The cells were treated with the gradient concentration of these compounds (the maximum concentration: 10 μM; 3-fold dilution ratio, 10 concentration gradients) for 72 hours and then incubated with the WST (CCK8) reagent to determine the cell viability.

[2] = tested on: HCC827 cells (EGFR Exon19 del, non-small cell lung cancer cells); experiment: Cell viability assay (WST/CCK8), HCC827 cells; type: cell-based; conditions: Homo sapiens, HCC827, 72 h, 72 hours, read-out: IC50 (half inhibitory concentration)
Method in brief: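 Cells seeded at 3 000/well in RPMI1640 complete medium, dosed next day with compounds (top 10 μM, 3-fold, 10 points) for 72 h. Viability read with WST (CCK8) reagent; DMSO as negative control, EGFR TKIs as positive controls; IC50 determined.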

[3] = HCC827 (Exon19 Del), WST (CCK8)
[4] = Table 3, poziotinib-based compounds, HCC827 (Exon19 Del), WST (CCK8)
[5] = Table 5, afatinib-based compounds, HCC827 (Exon19 Del), WST
[6] = Table 4, gefitinib and sapitinib-based compounds, HCC827 (Exon19 Del), WST
[7] = Table 8, osimertinib-based compounds, HCC827, WST

SMILES: COc1cc2ncnc(Nc3ccc(F)c(Cl)c3)c2cc1NC(=O)/C=C/CN1CCN(C(=O)CCCNc2cccc3c2CN(C2CCC(=O)NC2=O)C3=O)CC1 (stereo not shown) [SIAIS249057, (E)-N-(4-((3-chloro-4-fluorophenyl)amino)-7-methoxyquinazolin-6-yl)-4-(4-(4-((2-(2,6-dioxopiperidin-3-yl)-1-oxoisoindolin-4-yl)amino)butanoyl)piperazin-1-yl)but-2-enamide]
- IC50 [1]: 7.8 nM
- IC50 [2, 3]: 11.5 nM

SMILES: COc1cc2ncnc(Nc3ccc(F)c(Cl)c3)c2cc1NC(=O)/C=C/CN1CCN(C(=O)COCCOCCSc2cccc3c2CN(C2CCC(=O)NC2=O)C3=O)CC1 (stereo not shown) [SIAIS262001, (E)-N-(4-((3-chloro-4-fluorophenyl)amino)-7-methoxyquinazolin-6-yl)-4-(4-(2-(2-(2-((2-(2,6-dioxopiperidin-3-yl)-1-oxoisoindolin-4-yl)thio)ethoxy)ethoxy)acetyl)piperazin-1-yl)but-2-enamide]
- IC50 [1]: 53 nM
- IC50 [2, 3]: 26.9 nM

SMILES: COc1cc2ncnc(Nc3ccc(F)c(Cl)c3)c2cc1NC(=O)/C=C/CN1CCN(C(=O)CCOCCOCCNc2cccc3c2C(=O)N(C2CCC(=O)NC2=O)C3=O)CC1 (stereo not shown) [SIAIS262013, (E)-N-(4-((3-chloro-4-fluorophenyl)amino)-7-methoxyquinazolin-6-yl)-4-(4-(3-(2-(2-((2-(2,6-dioxopiperidin-3-yl)-1,3-dioxoisoindolin-4-yl)amino)ethoxy)ethoxy)propanoyl)piperazin-1-yl)but-2-enamide]
- IC50 [1]: 28 nM
- IC50 [2, 3]: 35.8 nM

SMILES: COc1cc2ncnc(Nc3ccc(F)c(Cl)c3)c2cc1NC(=O)/C=C/CN1CCN(C(=O)CCCCCSc2cccc3c2C(=O)N(C2CCC(=O)NC2=O)C3=O)CC1 (stereo not shown) [SIAIS249038, (E)-N-(4-((3-chloro-4-fluorophenyl)amino)-7-methoxyquinazolin-6-yl)-4-(4-(6-((2-(2,6-dioxopiperidin-3-yl)-1,3-dioxoisoindolin-4-yl)thio)hexanoyl)piperazin-1-yl)but-2-enamide]
- IC50 [1]: 22.9 nM
- IC50 [2, 3]: 4.7 nM

SMILES: COc1cc2ncnc(Nc3ccc(Cl)c(Cl)c3F)c2cc1OC1CCN(C(=O)CCCCCCSc2cccc3c2C(=O)N(C2CCC(=O)NC2=O)C3=O)CC1 (stereo not shown) [SIAIS249019, 4-((7-(4-((4-((3,4-dichloro-2-fluorophenyl)amino)-7-methoxyquinazolin-6-yl)oxy)piperidin-1-yl)-7-oxoheptyl)thio)-2-(2,6-dioxopiperidin-3-yl)isoindoline-1,3-dione]
- IC50 [2, 4]: 38 nM

SMILES: O=C1CCC(N2C(=O)c3cccc(SCC(=O)Nc4cc5c(Nc6ccc(F)c(Cl)c6)ncnc5cc4O[C@H]4CCOC4)c3C2=O)C(=O)N1 (stereo partly drawn) [SIAIS184093, N-(4-((3-chloro-4-fluorophenyl)amino)-7-(((S)-tetrahydrofuran-3-yl)oxy)quinazolin-6-yl)-2-((2-(2,6-dioxopiperidin-3-yl)-1,3-dioxoisoindolin-4-yl)thio)acetamide]
- IC50 [2, 5]: 86.2 nM

SMILES: COc1cc2ncnc(Nc3ccc(F)c(Cl)c3)c2cc1OCCCN1CCC(N2CCNCC2)CC1 [SIAIS262080, N-(3-chloro-4-fluorophenyl)-7-methoxy-6-(3-(4-(piperazin-1-yl)piperidin-1-yl)propoxy)quinazolin-4-amine]
- IC50 [2, 6]: 41 nM

SMILES: COc1cc2ncnc(Nc3ccc(F)c(Cl)c3)c2cc1OC1CCN(CC(=O)NCCCCCCSc2cccc3c2CN(C2CCC(=O)NC2=O)C3=O)CC1 (stereo not shown) [SIAIS293050, 2-(4-((4-((3-chloro-4-fluorophenyl)amino)-7-methoxyquinazolin-6-yl)oxy)piperidin-1-yl)-N-(6-((2-(2,6-dioxopiperidin-3-yl)-1-oxoisoindolin-4-yl)thio)hexyl)acetamide]
- IC50 [2, 6]: 1.5 nM

SMILES: C=CC(=O)Nc1cc(Nc2nccc(-c3cn(C)c4ccccc34)n2)c(OC)cc1N(C)CCN(C)C(=O)CCCCCCCCSc1cccc2c1CN(C1CCC(=O)NC1=O)C2=O (stereo not shown) [SIAIS337059, N-(2-((2-acrylamido-5-methoxy-4-((4-(1-methyl-1H-indol-3-yl)pyrimidin-2-yl)amino)phenyl)(methyl)amino)ethyl)-9-((2-(2,6-dioxopiperidin-3-yl)-1-oxoisoindolin-4-yl)thio)-N-methylnonanamide]
- IC50 [2, 7]: 46.7 nM

SMILES: COc1cc2ncnc(Nc3ccc(F)c(Cl)c3)c2cc1OC1CCN(CC(=O)O)CC1 [Gefitinib derivative C (SIAIS293033), 2-(4-((4-((3-chloro-4-fluorophenyl)amino)-7-methoxyquinazolin-6-yl)oxy)piperidin-1-yl)acetic acid]
- IC50 [2, 6]: 575 nM

SMILES: C=CC(=O)Nc1cc(Nc2nccc(-c3cn(C)c4ccccc34)n2)c(OC)cc1N(C)CCN(C)C(=O)CCCCSc1cccc2c1CN(C1CCC(=O)NC1=O)C2=O (stereo not shown) [SIAIS337055, N-(2-((2-acrylamido-5-methoxy-4-((4-(1-methyl-1H-indol-3-yl)pyrimidin-2-yl)amino)phenyl)(methyl)amino)ethyl)-5-((2-(2,6-dioxopiperidin-3-yl)-1-oxoisoindolin-4-yl)thio)-N-methylpentanamide]
- IC50 [2, 7]: 461 nM

SMILES: COc1cc2ncnc(Nc3ccc(F)c(Cl)c3)c2cc1OCCCN1CCC(N2CCN(CCCC#Cc3cccc4c3CN(C3CCC(=O)NC3=O)C4=O)CC2)CC1 (stereo not shown) [SIAIS262089, 3-(4-(5-(4-(1-(3-((4-((3-chloro-4-fluorophenyl)amino)-7-methoxyquinazolin-6-yl)oxy)propyl)piperidin-4-yl)piperazin-1-yl)pent-1-yn-1-yl)-1-oxoisoindolin-2-yl)piperidine-2,6-dione]
- IC50 [2, 6]: 102 nM

SMILES: O=C1CCC(N2C(=O)c3cccc(SCCOCCOCCOCCOCCOCC(=O)Nc4cc5c(Nc6ccc(F)c(Cl)c6)ncnc5cc4O[C@H]4CCOC4)c3C2=O)C(=O)N1 (stereo partly drawn) [SIAIS184156, N-(4-((3-chloro-4-fluorophenyl)amino)-7-(((S)-tetrahydrofuran-3-yl)oxy)quinazolin-6-yl)-17-((2-(2,6-dioxopiperidin-3-yl)-1,3-dioxoisoindolin-4-yl)thio)-3,6,9,12,15-pentaoxaheptadecan-1-amide]
- IC50 [2, 5]: 978 nM

SMILES: O=C1CCC(N2C(=O)c3cccc(SCCCC(=O)Nc4cc5c(Nc6ccc(F)c(Cl)c6)ncnc5cc4O[C@H]4CCOC4)c3C2=O)C(=O)N1 (stereo partly drawn) [SIAIS184094, N-(4-((3-chloro-4-fluorophenyl)amino)-7-(((S)-tetrahydrofuran-3-yl)oxy)quinazolin-6-yl)-4-((2-(2,6-dioxopiperidin-3-yl)-1,3-dioxoisoindolin-4-yl)thio)butanamide]
- IC50 [2, 5]: 105 nM

SMILES: O=C1CCC(N2C(=O)c3cccc(SCCOCC(=O)Nc4cc5c(Nc6ccc(F)c(Cl)c6)ncnc5cc4O[C@H]4CCOC4)c3C2=O)C(=O)N1 (stereo partly drawn) [SIAIS184152, N-(4-((3-chloro-4-fluorophenyl)amino)-7-(((S)-tetrahydrofuran-3-yl)oxy)quinazolin-6-yl)-2-(2-((2-(2,6-dioxopiperidin-3-yl)-1,3-dioxoisoindolin-4-yl)thio)ethoxy)acetamide]
- IC50 [2, 5]: 131 nM

SMILES: COc1cc2ncnc(Nc3ccc(F)c(Cl)c3)c2cc1OCCCN1CCNCC1 [Gefitinib derivative A (SIAIS184161), N-(3-chloro-4-fluorophenyl)-7-methoxy-6-(3-(piperazin-1-yl)propoxy)quinazolin-4-amine]
- IC50 [2, 6]: 10 nM

SMILES: COc1cc2ncnc(Nc3ccc(F)c(Cl)c3)c2cc1NC(=O)/C=C/CN1CCC(N2CCN(CCCCCCCCCCCSc3cccc4c3CN(C3CCC(=O)NC3=O)C4=O)CC2)CC1 (stereo not shown) [SIAIS337040, (E)-N-(4-((3-chloro-4-fluorophenyl)amino)-7-methoxyquinazolin-6-yl)-4-(4-(4-(11-((2-(2,6-dioxopiperidin-3-yl)-1-oxoisoindolin-4-yl)thio)undecyl)piperazin-1-yl)piperidin-1-yl)but-2-enamide]
- IC50 [2, 3]: 26.8 nM

SMILES: COc1cc2ncnc(Nc3ccc(Cl)c(Cl)c3F)c2cc1OC1CCN(C(=O)CCC(=O)N[C@H](C(=O)N2C[C@H](O)C[C@H]2C(=O)NCc2ccc(-c3scnc3C)cc2)C(C)(C)C)CC1 [SIAIS249020, (2S,4R)-1-((S)-2-(4-(4-((4-((3,4-dichloro-2-fluorophenyl)amino)-7-methoxyquinazolin-6-yl)oxy)piperidin-1-yl)-4-oxobutanamido)-3,3-dimethylbutanoyl)-4-hydroxy-N-(4-(4-methylthiazol-5-yl)benzyl)pyrrolidine-2-carboxamide]
- IC50 [2, 4]: 75.5 nM
